Bridge positions count the residues as written; N and C are the ends. Square brackets hold non-standard residues; d marks the D form. Peptide text beside a SMILES is read from it. * marks the point of attachment. ξ: configuration not given here. Phe(4-CONH2) = NC(=O)c1ccc(C[C@H](N)C(=O)O)cc1; Phe(4-COOH) = N[C@@H](Cc1ccc(C(=O)O)cc1)C(=O)O; Bip = N[C@@H](Cc1ccc(-c2ccccc2)cc1)C(=O)O; Phe(3-Me) = Cc1cccc(C[C@H](N)C(=O)O)c1; Val(3-OH) = CC(C)(O)[C@H](N)C(=O)O; Cha = N[C@@H](CC1CCCCC1)C(=O)O; Thr(3ξ) = CC(O)[C@H](N)C(=O)O; Carboxymethyl = O=C(O)C*; Orn = NCCC[C@H](N)C(=O)O; Aun = NCCCCCCCCCCC(=O)O; Dab = NCC[C@H](N)C(=O)O; Dap = NC[C@H](N)C(=O)O; AEEA = NCCOCCOCC(=O)O; Piv = CC(C)(C)C(=O)*

Drawing on patent publication US20260022142A1, “MACROCYCLIC IMMUNOMODULATORS” (Bristol-Myers Squibb Company, priority 2022, published 2026), this text covers IC50 for 12 molecules.

T1 sequence (Q15116 25-288): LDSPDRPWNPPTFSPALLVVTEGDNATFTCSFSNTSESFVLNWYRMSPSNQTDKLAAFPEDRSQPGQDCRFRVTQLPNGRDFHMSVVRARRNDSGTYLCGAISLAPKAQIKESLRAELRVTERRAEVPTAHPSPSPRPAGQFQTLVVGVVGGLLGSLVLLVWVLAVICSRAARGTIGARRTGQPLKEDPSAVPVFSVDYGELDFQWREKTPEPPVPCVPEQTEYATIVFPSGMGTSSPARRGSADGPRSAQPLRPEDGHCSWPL

The assay concerns the target T1, PD-1/PD-L1 interaction (PE-labeled human PD-L1-Ig binding to Jurkat cell line over-expressing human PD-1) (Homo sapiens, UniProt Q15116).
T1 construct: expressed in transfected cells; host or cells: Jurkat
In words: Jurkat-PD-1 Cell Binding High-Content Screening Assay (CBA). In kind it is cell-based. The following applies: Jurkat cell line over-expressing human PD-1; PE-labeled PD-L1-Ig 20 nM final; read-out: Jurkat hPD1-PDL1 IC50. Summed up: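 Jurkat-hPD-1 cells, DMEM/10% FCS; cpd 2 h 37° C; PE-PD-L1-Ig 20 nM final, 1 h; 4% PFA fix + Hoechst 33342, 3× dPBS wash; high-content imaging read-out.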
For `Cc1cccc(C[C@@H]2NC(=O)[C@H](CC(=O)O)NC(=O)[C@H](Cc3ccc(OCC(=O)O)cc3)NC(=O)[C@H](CCN)NC(=O)CSC[C@@H](C(=O)N[C@@H](CCN)C(=O)NCCCCCCCCCCC(=O)O)NC(=O)[C@H](CO)NC(=O)[C@H](C(C)(C)O)NC(=O)[C@H](CC3CCCCC3)NC(=O)[C@H](CCN)NC(=O)[C@@H](CC(C)C)NC(=O)[C@H](CCCN)NC(=O)[C@H](Cc3ccc(C(N)=O)cc3)NC(=O)[C@H](Cc3ccc(-c4ccccc4)cc3)NC(=O)[C@H](Cc3ccc(C(N)=O)cc3)NC2=O)c1` [Compound 3698] ({CH2CO}-[Dab]Y(Carboxymethyl)D[Phe(3-Me)][Phe(4-CONH2)][Bip][Phe(4-CONH2)][Orn][dL][Dab][Cha][Val(3-OH)]SC[Dab][Aun]-OH; thioether N-14), the IC50 stood at 15.6 nM.

As for `CC(C)C[C@H]1NC(=O)[C@H](CCCN)NC(=O)[C@H](Cc2ccc(O)cc2)NC(=O)[C@H](Cc2ccc(-c3ccccc3)cc2)NC(=O)[C@H](CCCCNC(=O)C(C)(C)C)NC(=O)[C@H](Cc2c[nH]c3ccccc23)NC(=O)[C@H](CC(=O)O)NC(=O)[C@H](Cc2ccc(OCC(=O)O)cc2)NC(=O)[C@H](C(C)O)NC(=O)CSC[C@@H](C(=O)NCCOCCOCC(=O)NCCCCCCCCCCC(=O)O)NC(=O)[C@H](CO)NC(=O)[C@H](Cc2cnc[nH]2)NC(=O)[C@H](CC2CCCCC2)NC(=O)[C@H](CCN)NC1=O` (stereo partly drawn) [Compound 3699] ({CH2CO}-[Thr(3ξ)]Y(Carboxymethyl)DWK(Piv)[Bip]Y[Orn][dL][Dab][Cha]HSC[AEEA][Aun]-OH; thioether N-14), the IC50 was found to be 96.9 nM.

`CC(C)C[C@@H]1NC(=O)[C@H](Cc2c[nH]c3ccccc23)NC(=O)[C@H](CC(=O)O)NC(=O)[C@H](Cc2ccc(OCC(=O)O)cc2)NC(=O)[C@H](CCN)NC(=O)CSC[C@@H](C(=O)NCCOCCOCC(=O)NCCCCCCCCCCC(=O)O)NC(=O)[C@H](C(C)O)NC(=O)[C@H](C(C)C)NC(=O)[C@H](CC2CCCCC2)NC(=O)[C@H](Cc2cnc[nH]2)NC(=O)[C@@H](CC(C)C)NC(=O)[C@H](CCCN)NC(=O)[C@H](C(C)C)NC(=O)[C@H](Cc2ccc(-c3ccccc3)cc2)NC1=O` (stereo partly drawn) [Compound 3700] ({CH2CO}-[Dab]Y(Carboxymethyl)DWL[Bip]V[Orn][dL]H[Cha]V[Thr(3ξ)]C[AEEA][Aun]-OH; thioether N-14): the IC50 came to 56.7 nM.

`CC(C)C[C@@H]1NC(=O)[C@H](Cc2c[nH]c3ccccc23)NC(=O)[C@H](CC(=O)O)NC(=O)[C@H](Cc2ccc(OCC(=O)O)cc2)NC(=O)[C@H](CCN)NC(=O)CSC[C@@H](C(=O)NCCOCCOCC(=O)NCCCCCCCCCCC(=O)O)NC(=O)[C@H](CO)NC(=O)[C@H](C(C)C)NC(=O)[C@H](CC2CCCCC2)NC(=O)[C@H](Cc2cnc[nH]2)NC(=O)[C@@H](CC(C)C)NC(=O)[C@H](CCCN)NC(=O)[C@H](C(C)C)NC(=O)[C@H](Cc2ccc(-c3ccccc3)cc2)NC1=O` [Compound 3701] ({CH2CO}-[Dab]Y(Carboxymethyl)DWL[Bip]V[Orn][dL]H[Cha]VSC[AEEA][Aun]-OH; thioether N-14): the IC50 is 92.2 nM.

As for `Cc1cccc(C[C@@H]2NC(=O)[C@H](CC(=O)O)NC(=O)[C@H](Cc3ccc(OCC(=O)O)cc3)NC(=O)[C@H](C(C)O)NC(=O)CSC[C@@H](C(=O)NCCOCCOCC(=O)NCCCCCCCCCCC(=O)O)NC(=O)[C@H](Cc3cnc[nH]3)NC(=O)[C@H](C(C)O)NC(=O)[C@H](CC3CCCCC3)NC(=O)[C@H](CCN)NC(=O)[C@@H](CC(C)C)NC(=O)[C@H](CCCN)NC(=O)[C@H](C(C)C)NC(=O)[C@H](Cc3ccc(-c4ccccc4)cc3)NC(=O)[C@H](C(C)C)NC2=O)c1` (stereo partly drawn) [Compound 3703] ({CH2CO}-[Thr(3ξ)]Y(Carboxymethyl)D[Phe(3-Me)]V[Bip]V[Orn][dL][Dab][Cha][Thr(3ξ)]HC[AEEA][Aun]-OH; thioether N-14), the IC50 was 23.4 nM.

With `Cc1cccc(C[C@@H]2NC(=O)[C@H](CC(=O)O)NC(=O)[C@H](Cc3ccc(OCC(=O)O)cc3)NC(=O)[C@H](C(C)O)NC(=O)CSC[C@@H](C(=O)N[C@@H](CCN)C(=O)NCCCCCCCCCCC(=O)O)NC(=O)[C@H](CO)NC(=O)[C@H](Cc3cnc[nH]3)NC(=O)[C@H](CC3CCCCC3)NC(=O)[C@H](CCN)NC(=O)[C@@H](CC(C)C)NC(=O)[C@H](CCCN)NC(=O)[C@H](Cc3ccc(OCC(=O)O)cc3)NC(=O)[C@H](Cc3ccc(-c4ccccc4)cc3)NC(=O)[C@H](Cc3ccc(C(=O)O)cc3)NC2=O)c1` (stereo partly drawn) [Compound 3704] ({CH2CO}-[Thr(3ξ)]Y(Carboxymethyl)D[Phe(3-Me)][Phe(4-COOH)][Bip]Y(Carboxymethyl)[Orn][dL][Dab][Cha]HSC[Dab][Aun]-OH; thioether N-14), the 50% inhibitory concentration (IC50) came to 21.9 nM.

As for `Cc1cccc(C[C@@H]2NC(=O)[C@H](CC(=O)O)NC(=O)[C@H](Cc3ccc(OCC(=O)O)cc3)NC(=O)[C@H](CN)NC(=O)CSC[C@@H](C(=O)N[C@@H](CCN)C(=O)NCCCCCCCCCCC(=O)O)NC(=O)[C@H](CO)NC(=O)[C@H](Cc3cnc[nH]3)NC(=O)[C@H](CC3CCCCC3)NC(=O)[C@H](CCN)NC(=O)[C@@H](CC(C)C)NC(=O)[C@H](CCCN)NC(=O)[C@H](Cc3ccc(OCC(=O)O)cc3)NC(=O)[C@H](Cc3ccc(-c4ccccc4)cc3)NC(=O)[C@H](Cc3ccc(C(=O)O)cc3)NC2=O)c1` [Compound 3705] ({CH2CO}-[Dap]Y(Carboxymethyl)D[Phe(3-Me)][Phe(4-COOH)][Bip]Y(Carboxymethyl)[Orn][dL][Dab][Cha]HSC[Dab][Aun]-OH; thioether N-14), the half-maximal inhibitory concentration (IC50) turned out to be 24.2 nM.

Take `Cc1cccc(C[C@@H]2NC(=O)[C@H](CC(=O)O)NC(=O)[C@H](Cc3ccc(OCC(=O)O)cc3)NC(=O)[C@H](Cc3ccccc3)NC(=O)CSC[C@@H](C(=O)N[C@@H](CCN)C(=O)NCCCCCCCCCCC(=O)O)NC(=O)[C@H](CO)NC(=O)[C@H](Cc3cnc[nH]3)NC(=O)[C@H](CC3CCCCC3)NC(=O)[C@H](CCN)NC(=O)[C@@H](CC(C)C)NC(=O)[C@H](CCCN)NC(=O)[C@H](Cc3ccc(OCC(=O)O)cc3)NC(=O)[C@H](Cc3ccc(-c4ccccc4)cc3)NC(=O)[C@H](Cc3ccc(C(=O)O)cc3)NC2=O)c1` [Compound 3706] ({CH2CO}-FY(Carboxymethyl)D[Phe(3-Me)][Phe(4-COOH)][Bip]Y(Carboxymethyl)[Orn][dL][Dab][Cha]HSC[Dab][Aun]-OH; thioether N-14): the half-maximal inhibitory concentration (IC50) came to 70.3 nM.

Consider `Cc1cccc(C[C@@H]2NC(=O)[C@H](CC(=O)O)NC(=O)[C@H](Cc3ccc(OCC(=O)O)cc3)NC(=O)[C@H](CN)NC(=O)CSC[C@@H](C(=O)N[C@@H](CCN)C(=O)NCCCCCCCCCCC(=O)O)NC(=O)[C@H](Cc3cnc[nH]3)NC(=O)[C@H](C(C)O)NC(=O)[C@H](CC3CCCCC3)NC(=O)[C@H](CCN)NC(=O)[C@@H](CC(C)C)NC(=O)[C@H](CCCN)NC(=O)[C@H](Cc3ccc(OCC(=O)O)cc3)NC(=O)[C@H](Cc3ccc(-c4ccccc4)cc3)NC(=O)[C@H](Cc3ccc(C(=O)O)cc3)NC2=O)c1` (stereo partly drawn) [Compound 3708] ({CH2CO}-[Dap]Y(Carboxymethyl)D[Phe(3-Me)][Phe(4-COOH)][Bip]Y(Carboxymethyl)[Orn][dL][Dab][Cha][Thr(3ξ)]HC[Dab][Aun]-OH; thioether N-14), for which the IC50 was 11.4 nM.

For the molecule `Cc1cccc(C[C@@H]2NC(=O)[C@H](CC(=O)O)NC(=O)[C@H](Cc3ccc(OCC(=O)O)cc3)NC(=O)[C@H](Cc3ccccc3)NC(=O)CSC[C@@H](C(=O)N[C@@H](CCN)C(=O)NCCCCCCCCCCC(=O)O)NC(=O)[C@H](Cc3cnc[nH]3)NC(=O)[C@H](C(C)O)NC(=O)[C@H](CC3CCCCC3)NC(=O)[C@H](CCN)NC(=O)[C@@H](CC(C)C)NC(=O)[C@H](CCCN)NC(=O)[C@H](Cc3ccc(OCC(=O)O)cc3)NC(=O)[C@H](Cc3ccc(-c4ccccc4)cc3)NC(=O)[C@H](Cc3ccc(C(=O)O)cc3)NC2=O)c1` (stereo partly drawn) [Compound 3709] ({CH2CO}-FY(Carboxymethyl)D[Phe(3-Me)][Phe(4-COOH)][Bip]Y(Carboxymethyl)[Orn][dL][Dab][Cha][Thr(3ξ)]HC[Dab][Aun]-OH; thioether N-14), the IC50 amounted to 54.5 nM.

For the molecule `CC(=O)NCC[C@@H]1NC(=O)[C@H](C(C)C)NC(=O)[C@H](CC2CCCCC2)NC(=O)[C@H](CCN)NC(=O)[C@@H](CC(C)C)NC(=O)[C@H](CCC(=O)O)NC(=O)[C@H](C(C)C)NC(=O)[C@H](Cc2ccc(-c3ccccc3)cc2)NC(=O)[C@H](CC(C)C)NC(=O)[C@H](Cc2c[nH]c3ccccc23)NC(=O)[C@H](CC(=O)O)NC(=O)[C@H](Cc2ccc(OCC(=O)O)cc2)NC(=O)[C@H](C(C)O)NC(=O)CSC[C@@H](C(=O)NCCOCCOCC(=O)NCCCCCCCCCCC(=O)O)NC1=O` (stereo partly drawn) [Compound 3710] ({CH2CO}-[Thr(3ξ)]Y(Carboxymethyl)DWL[Bip]VE[dL][Dab][Cha]V[Dab](Ac)C[AEEA][Aun]-OH; thioether N-14), the 50% inhibitory concentration (IC50) was 82.2 nM.

Regarding `CC(=O)NCC[C@@H]1NC(=O)[C@H](C(C)C)NC(=O)[C@H](CC2CCCCC2)NC(=O)[C@H](CCN)NC(=O)[C@@H](CC(C)C)NC(=O)[C@H](CCC(=O)O)NC(=O)[C@H](C(C)C)NC(=O)[C@H](Cc2ccc(-c3ccccc3)cc2)NC(=O)[C@H](CC(C)C)NC(=O)[C@H](Cc2c[nH]c3ccccc23)NC(=O)[C@H](CC(=O)O)NC(=O)[C@H](Cc2ccc(OCC(=O)O)cc2)NC(=O)[C@H](Cc2ccc(OCC(=O)O)cc2)NC(=O)CSC[C@@H](C(=O)NCCOCCOCC(=O)NCCCCCCCCCCC(=O)O)NC1=O` [Compound 3711] ({CH2CO}-Y(Carboxymethyl)Y(Carboxymethyl)DWL[Bip]VE[dL][Dab][Cha]V[Dab](Ac)C[AEEA][Aun]-OH; thioether N-14), the IC50 was found to be 91.5 nM.

Broadly, the IC50 is the concentration that inhibits the measured activity by half.
